In the NIST ThermoML archive (doi:10.1021/je0302248):
Numbers after ± are expanded uncertainties.

Conditions: Liquid

SMILES | vapor or sublimation pressure (319.5 K) [kPa] | vapor or sublimation pressure (336.5 K) [kPa] | vapor or sublimation pressure (393.4 K) [kPa] | vapor or sublimation pressure (419.2 K) [kPa]
CCO [ethanol] | 24 ± 7.2 | 53.32 ± 16 | – | –
CCO[Si](OCC)(OCC)OCC [tetraethoxysilane] | – | – | 24 ± 7.2 | 53.32 ± 16
